≈ marks a conversion by molar mass, not a printed value. Where two headings read alike, the source gives them in different places.
How the values were obtained:
[1] = tested on: S. aureus ATCC 13709; test: MIC, S. aureus ATCC 13709 (Alamar Blue broth microdilution); format: cell-based; conditions: for MIC: Staphylococcus aureus, ATCC13709, S. aureus
[2] = tested on: E. coli ATCC 25922; test: MIC, E. coli ATCC 25922; format: cell-based; conditions: for MIC: Escherichia coli, ATCC25922, E. coli
[3] = Alamar Blue read after overnight incubation at 35° C.
[4] = S. aureus, Alamar Blue read after overnight incubation at 35° C.
[5] = E. coli, Alamar Blue read after overnight incubation at 35° C.

| Structure (SMILES) | MIC [1, 3] [µg/mL] | MIC [2, 3] [µg/mL] | further results |
| --- | --- | --- | --- |
| NC1CN(c2nc(Sc3cnc4ccc[n+]([O-])c4c3)nc3[nH]c4c(NC5CC5)cc(F)cc4c23)CC12CC2 (stereo not shown) [1.2] | 32 (≈ 60.5 µM) | > 64 | – |
| CNc1cc(F)cc2c1[nH]c1nc(Oc3cnc(C)nc3)nc(C3=CCNCC3)c12 [4.162] | – | – | MIC Sa [1, 4]: 8 µg/mL (≈ 19.7 µM); MIC Ec [2, 5]: >16 µg/mL |
| CNc1cc(F)cc2c1[nH]c1nc(Oc3cnc(C)nc3)nc(N3CC[C@H](N)[C@@H](F)C3)c12 [4.144] | ≤ 0.5 | 1 (≈ 2.27 µM) | – |
| CNc1cccc2c1[nH]c1nc(Sc3cnc4ccc[n+]([O-])c4c3)nc(N3CCC4(CC4N)C3)c12 (stereo not shown) [1.39] | – | – | MIC Sa [1, 4]: ≤0.5 µg/mL; MIC Ec [2, 5]: 1 µg/mL (≈ 2.06 µM) |
| CNc1cc(F)cc2c1[nH]c1nc(Oc3cnc4ccoc4c3)nc(N3CC4CC(N)C4C3)c12 (stereo not shown) [4.290] | ≤ 0.5 | ≤ 0.5 | – |
| CNc1cc(F)cc2c1[nH]c1nc(Oc3cncnc3)nc(N3CC(C)C(CN)C3)c12 (stereo not shown) [4.023] | – | – | MIC Sa [1, 4]: ≤0.5 µg/mL; MIC Ec [2, 5]: 1 µg/mL (≈ 2.37 µM) |
| CNc1cc(F)cc2c1[nH]c1nc(Oc3cnc(C)nc3)nc(N3CC4CNC(C4)C3)c12 (stereo not shown) [4.072] | ≤ 0.5 | 1 (≈ 2.3 µM) | – |
| CNc1cccc2c1[nH]c1nc(Oc3cnc(C)nc3)nc(N3CC4C(C3)C4NCCC#N)c12 (stereo not shown) [3.11] | ≤ 0.5 | 2 (≈ 4.39 µM) | – |
| CNc1cc(F)cc2c1[nH]c1nc(Oc3cncnc3)nc(N3C[C@H]4CCN[C@H]4C3)c12 [4.020] | ≤ 0.5 | ≤ 0.5 | – |
| CNc1cc(F)cc2c1[nH]c1nc(Oc3cnc(SC)nc3)nc(N3CCC4(CC4N)C3)c12 (stereo not shown) [4.195] | ≤ 0.5 | 1 (≈ 2.14 µM) | – |
| CNc1cc(F)cc2c1[nH]c1nc(Oc3cnc4c(c3)ncn4C3CC3)nc(N3CC4C[C@@H](N)C4C3)c12 (stereo partly shown) [4.363] | ≤ 0.5 | 1 (≈ 2 µM) | – |
| CNc1cccc2c1[nH]c1nc(Sc3cnc4ccc[n+]([O-])c4c3)nc(N3CC4C(N)C4C3)c12 (stereo not shown) [1.66] | – | – | MIC Sa [1, 4]: ≤0.13 µg/mL; MIC Ec [2, 5]: ≤0.5 µg/mL |
| CNc1cccc2c1[nH]c1nc(Oc3ccc[n+]([O-])c3)nc(N3CC4C(N)C4C3)c12 (stereo not shown) [3.30] | 16 (≈ 39.7 µM) | 16 (≈ 39.7 µM) | – |
| CNc1cc(F)cc2c1[nH]c1nc(Oc3cnc(N4CC(C)(N)C4)nc3)nc(N3CCC4(C[C@@H]4N)C3)c12 (stereo partly shown) [4.341] | – | – | MIC Sa [1, 4]: ≤0.5 µg/mL; MIC Ec [2, 5]: 1 µg/mL (≈ 1.98 µM) |
| CNc1cc(F)cc2c1[nH]c1nc(Oc3cnc(N4CC(O)C4)nc3)nc(N3CC4C(N)C4C3)c12 (stereo not shown) [4.298] | ≤ 0.5 | 2 (≈ 4.19 µM) | – |
| CNc1cc(F)cc2c1[nH]c1nc(Oc3cnc4c(c3)OCCO4)nc(N3CC4CC(N)C4C3)c12 (stereo not shown) [4.294] | ≤ 0.5 | 1 (≈ 2.09 µM) | – |
| CNc1cc(F)c(C)c2c1[nH]c1nc(Oc3cnc(C)nc3)nc(N3CC4(CCC4N)C3)c12 (stereo not shown) [6.20] | – | – | MIC Sa [1]: 4 µg/mL (≈ 8.92 µM); MIC Ec [2]: >16 µg/mL |
| CNc1cc(F)cc2c1[nH]c1nc(Oc3cnc4ccoc4c3)nc(N3CC4C(N)C4C3)c12 (stereo not shown) [4.291] | ≤ 0.5 | ≤ 0.5 | – |
| CNc1cccc2c1[nH]c1nc(Oc3cncc(C#N)c3)nc(N3CCN(CCN)CC3)c12 [3.55] | 64 (≈ 144 µM) | > 64 | – |
| CNc1cc(Cl)cc2c1[nH]c1nc(Oc3cnc(N)nc3)nc(N3CCC4(CC4N)C3)c12 (stereo not shown) [6.15] | – | – | MIC Sa [1]: ≤0.5 µg/mL; MIC Ec [2]: ≤0.5 µg/mL |
| Nc1cccc2c1[nH]c1nc(Sc3cnc4cccnc4c3)nc(N3CC4C(N)C4C3)c12 (stereo not shown) [1.9] | 64 (≈ 145 µM) | > 64 | – |
| CNc1cccc2c1[nH]c1nc(Oc3ccc4nccnc4c3)nc(N3CC4C(N)C4C3)c12 (stereo not shown) [3.31] | 2 (≈ 4.56 µM) | 8 (≈ 18.2 µM) | – |
| CNc1cc(F)cc2c1[nH]c1nc(Oc3cncnc3)nc(N3C[C@H](N)C[C@H]3C)c12 [4.029] | 4 (≈ 9.79 µM) | 16 (≈ 39.2 µM) | – |
| CNc1cc(F)cc2c1[nH]c1nc(Oc3cnc(C(F)(F)F)nc3)nc(N3C[C@@H]4[C@@H](N)[C@@H]4C3)c12 [4.280] | ≤ 0.5 | ≤ 0.5 | – |
| CNc1cccc2c1[nH]c1nc(Sc3cnc4cccnc4c3)nc(N3CC4C(C3)C4(N)CO)c12 (stereo not shown) [1.30] | 16 (≈ 33 µM) | > 64 | – |
| CNc1cc(F)c(F)c2c1[nH]c1nc(Oc3cnc(C)nc3)nc(N3CC(N)C4(CC4)C3)c12 (stereo not shown) [5.05] | – | – | MIC Sa [1, 4]: ≤0.5 µg/mL; MIC Ec [2, 5]: ≤0.5 µg/mL |

From US10858360B2, “Tricyclic gyrase inhibitors” (priority 2011, dated 2020)
